Measurements from patent US20140162942A1, “INHIBITION OF CYP3A DRUG METABOLISM” (priority 2010, published 2014).

Key:
HCV NS3 serine protease = HCV NS3 serine protease (Hepatitis C virus genotype 1a, UniProt P27958); conditions: as described in WO2005/015579; cited from earlier work
CYP3A4/5 = test: Clinical study: effect of boceprevir on the pharmacokinetic profile of midazolam in healthy adult subjects; conditions: for AUC(0-t) / Cmax / Tmax: both, human, in vivo, 4 mg; for Tmax: MDZ Tmax
Protocol: A clinical study was conducted to determine the effects of boceprevir on the pharmacokinetic (PK) profile of midazolam (MDZ) to assess the ability of boceprevir to inhibit CYP3A4/5 in vivo by monitoring its effect on the metabolism of MDZ, a sensitive CYP3A4/5 substrate.
This study was conducted in healthy adult subjects (seven male and five female subjects), at a single center, in conformance with Good Clinical Practices. The study used a fixed-sequence design ([…]). The PK profile of MDZ and its metabolite (1-hydroxy midazolam [1-0H-MDZ)) was determined when MDZ was administered alone and compared with the PK profile after co-administration of boceprevir as well as following a washout period of 7 days after boceprevir administration.
Boceprevir (BOC) 800 mg was administered as 4×200 mg capsules. MDZ 4 mg was administered as a single dose of an oral solution.
Day 1: MDZ 4 mg (oral solution, single dose)
Days 1 to 5: Boceprevir 800 mg (4×200 mg capsules) TID
Day 6: MDZ 4 mg (oral solution, single dose) and boceprevir 800 mg (4×200 mg capsules) TID Days 8 and 13: MDZ 4 mg (oral solution, single dose)
Blood samples for PK analyses were collected: for MDZ and 1-0H-MDZ: Days −1, 6, 8, and 13: predose (Ohr) and at 0.5, 1, 2, 3, 4, 8, 12, and 24 hours postdose for boceprevir: predose (Ohr) on Day 4 and Day 5 and on Day 6: predose (Ohr), and at 0.5, 1, 2, 3, 4, 6, and 8 hr postdose. The 8 hour sample was to be collected prior to the administration of the next dose of Boceprevir.

HCV NS3 serine protease, sequence (P27958 1658-1711): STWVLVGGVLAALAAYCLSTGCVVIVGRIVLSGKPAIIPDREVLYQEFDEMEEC
HCV NS3 serine protease, sequence (P27958 1027-1657): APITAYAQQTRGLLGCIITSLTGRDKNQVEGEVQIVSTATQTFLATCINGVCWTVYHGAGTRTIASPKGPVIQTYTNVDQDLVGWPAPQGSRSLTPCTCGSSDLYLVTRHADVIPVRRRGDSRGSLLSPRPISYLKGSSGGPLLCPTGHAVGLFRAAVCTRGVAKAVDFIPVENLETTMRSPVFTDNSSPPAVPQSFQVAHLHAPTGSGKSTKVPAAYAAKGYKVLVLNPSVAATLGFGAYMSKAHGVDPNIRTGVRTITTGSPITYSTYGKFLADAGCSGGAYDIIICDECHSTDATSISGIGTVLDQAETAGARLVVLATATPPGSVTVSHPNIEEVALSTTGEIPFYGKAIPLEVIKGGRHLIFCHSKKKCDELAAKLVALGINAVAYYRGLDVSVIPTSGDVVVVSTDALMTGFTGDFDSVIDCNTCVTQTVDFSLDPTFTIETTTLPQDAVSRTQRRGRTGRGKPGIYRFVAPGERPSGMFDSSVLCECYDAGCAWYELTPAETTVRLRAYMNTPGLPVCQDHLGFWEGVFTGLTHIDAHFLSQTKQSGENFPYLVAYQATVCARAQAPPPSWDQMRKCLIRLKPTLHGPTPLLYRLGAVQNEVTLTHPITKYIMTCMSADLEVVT

CC(C)(C)NC(=O)N[C@H](C(=O)N1C[C@H]2[C@@H]([C@H]1C(=O)N[C@@H](CC1CCC1)C(=O)C(N)=O)C2(C)C)C(C)(C)C [Formula 1b, (1R,2S,5S)—N-[(1S)-3-amino-1-(cyclobutylmethyl)-2,3-dioxopropyl]-3-[(2S)-2[[[(1,1-dimethylethyl)amino]carbonyl]amino]-3,3-dimethyl-1-oxobutyl]-6,6-dimethyl-3-azabicyclo[3.1.0]hexane-2-carboxamide]
in vitro HCV NS3 serine protease inhibitory activity compared with the compound of Formula 1c (HCV NS3 serine protease): significantly higher

Cc1ncc2n1-c1ccc(Cl)cc1C(c1ccccc1F)=NC2 [MDZ, midazolam]
Plasma concentrations of MDZ, return to baseline after boceprevir (CYP3A4/5; 48 hours post last administration of boceprevir): returned to baseline values by Day 8
AUC(0-t) (CYP3A4/5; MDZ AUC (0-24 hr) LS Mean, MDZ Alone (Day 8)): 56.1 ng·h/mL
AUC(0-t) (CYP3A4/5; MDZ AUC (0-24 hr) LS Mean, MDZ Alone (Day 13)): 43.8 ng·h/mL
AUC(0-t) (CYP3A4/5; MDZ AUC (0-24 hr) LS Mean, MDZ Alone (Day-1)): 52.9 ng·h/mL
AUC(0-t) (CYP3A4/5; MDZ AUC(0-24 hr), MDZ Alone (Day 8), after boceprevir): 59.2 ng·h/mL
AUC(0-t) (CYP3A4/5; MDZ AUC(0-24 hr), MDZ Alone (Day 13), after boceprevir): 45.4 ng·h/mL
Cmax (CYP3A4/5; MDZ Cmax LS Mean, MDZ Alone (Day 8)): 9.82 ng/mL
Cmax (CYP3A4/5; MDZ Cmax LS Mean, MDZ Alone (Day 13)): 8.94 ng/mL
Cmax (CYP3A4/5; MDZ Cmax LS Mean, MDZ Alone (Day-1)): 9.96 ng/mL
Cmax (CYP3A4/5; MDZ Cmax, MDZ Alone (Day 8), after boceprevir): 10.3 ng/mL
Cmax (CYP3A4/5; MDZ Cmax, MDZ Alone (Day 13), after boceprevir): 9.15 ng/mL
Tmax (CYP3A4/5; MDZ Alone (Day 8), after boceprevir): 2 h
Tmax (CYP3A4/5; MDZ Alone (Day 13), after boceprevir): 1 h
AUC(0-t) (CYP3A4/5; po, MDZ AUC(0-24 hr), MDZ Alone (Day-1), MDZ 4 mg oral, n = 12): 56.4 ng·h/mL
Cmax (CYP3A4/5; po, MDZ Cmax, MDZ Alone (Day-1), MDZ 4 mg oral, n = 12): 10.3 ng/mL
Tmax (CYP3A4/5; po, MDZ Alone (Day-1), MDZ 4 mg oral, n = 12): 2 h
